From US20080221086A1, “Novel Inhibitors of Glutaminyl Cyclase” (PROBIODRUG AG, priority 2006, published 2008)

Molecular target: hQC (Homo sapiens, UniProt Q16769)
Assay: Fluorometric assay of glutaminyl cyclase (QC) inhibition, H-Gln-βNA or H-Gln-AMC substrate
Type: biochemical
Settings: read-out: IC50
Protocol: All compounds were immediately tested regarding their activity as hQC inhibitors.
The purity of the compounds was determined by HPLC-MS. The IC50 value against hQC was measured using the fluorescent assay.
All measurements were performed with a BioAssay Reader HTS-7000Plus for microplates (Perkin Elmer) at 30° C. QC activity was evaluated fluorometrically using H-Gln-βNA. The samples consisted of 0.2 mM fluorogenic substrate, 0.25 U pyroglutamyl aminopeptidase (Unizyme, Hørsholm, Denmark) in 0.2 M Tris/HCl, pH 8.0 containing 20 mM EDTA and an appropriately diluted aliquot of QC in a final volume of 250 μl. Excitation/emission wavelengths were 320/410 nm. The assay reactions were initiated by addition of glutaminyl cyclase. QC activity was determined from a standard curve of β-naphthylamine under assay conditions. One unit is defined as the amount of QC catalyzing the formation of 1 μmol pGlu-βNA from H-Gln-βNA per minute under the described conditions.
In a second fluorometric assay, QC was activity was determined using H-Gln-AMC as substrate. Reactions were carried out at 30° C. utilizing the NOVOStar reader for microplates (BMG labtechnologies). The samples consisted of varying concentrations of the fluorogenic substrate, 0.1 U pyroglutamyl aminopeptidase (Qiagen) in 0.05 M Tris/HCl, pH 8.0 containing 5 mM EDTA and an appropriately diluted aliquot of QC in a final volume of 250 μl. Excitation/emission wavelengths were 380/460 nm. The assay reactions were initiated by addition of glutaminyl cyclase. QC activity was determined from a standard curve of 7-amino-4-methylcoumarin under assay conditions. The kinetic data were evaluated using GraFit software.
For inhibitor testing, the sample composition was the same as described above, except of the putative inhibitory compound added. For a rapid test of QC-inhibition, samples contained 4 mM of the respective inhibitor and a substrate concentration at 1 KM. For detailed investigations of the inhibition and determination of Ki-values, influence of the inhibitor on the auxiliary enzymes was investigated first. In every case, there was no influence on either enzyme detected, thus enabling the reliable determination of the QC inhibition. The inhibitory constant was evaluated by fitting the set of progress curves to the general equation for competitive inhibition using GraFit software.

hQC, sequence (Q16769 29-361): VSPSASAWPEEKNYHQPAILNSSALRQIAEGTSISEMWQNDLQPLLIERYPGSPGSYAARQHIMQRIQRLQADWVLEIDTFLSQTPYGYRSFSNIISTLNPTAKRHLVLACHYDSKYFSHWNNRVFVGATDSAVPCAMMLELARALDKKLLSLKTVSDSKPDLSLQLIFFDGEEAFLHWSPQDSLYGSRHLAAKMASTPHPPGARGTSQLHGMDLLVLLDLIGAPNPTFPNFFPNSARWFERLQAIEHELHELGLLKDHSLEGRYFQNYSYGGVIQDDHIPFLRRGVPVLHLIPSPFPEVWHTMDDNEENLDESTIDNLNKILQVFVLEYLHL

SMILES | IC50 [µM]
O=C1N/C(=N/CCc2c[nH]c3ccccc23)C(c2ccco2)N1CCCn1ccnc1 (stereo not drawn) [Compound 58, 5-Furan-2-yl-1-(3-imidazol-1-yl-propyl)-4-2-(1H-indol-3-yl)-ethylimino-imidazolidin-2-one] | 6.7
O=C(C/N=C1/NC(=O)N(c2ccc3[nH]cnc3c2)C1C1=CCCCC1)N1CCSCC1 (stereo not drawn) [Compound 265, 1-(1H-Benzoimidazol-5-yl)-5-cyclohex-1-enyl-4-2-oxo-2-thiomorpholin-4-yl-ethylimino-imidazolidin-2-one] | 8.5
C/N=C1/NC(=O)N(c2ccc3[nH]cnc3c2)C1c1c[nH]c2ccc(Cl)cc12 (stereo not drawn) [Compound 223, 1-(1H-Benzoimidazol-5-yl)-5-(5-chloro-1H-indol-3-yl)-4-methylimino-imidazolidin-2-one] | 0.4
Cc1cccc(C2/C(=N\Cn3nnc4ccccc43)NC(=S)N2c2ccc3[nH]cnc3c2)c1 (stereo not drawn) [Compound 285, 1-(1H-Benzoimidazol-5-yl)-4-benzotriazol-1-ylmethylimino-5-m-tolyl-imidazolidine-2-thione] | 1.3
O=C(C/N=C1/NC(=O)N(CCCn2ccnc2)C1c1ccsc1)N1CCc2ccccc2C1 (stereo not drawn) [Compound 65, 4-2-(3,4-Dihydro-1H-isoquinolin-2-yl)-2-oxo-ethylimino-1-(3-imidazol-1-yl-propyl)-5-thiophen-3-yl-imidazolidin-2-one] | 5.8
O=C(C/N=C1\NC(=O)N(CCCn2ccnc2)C1c1cccc(F)c1F)N1CCc2ccccc2C1 (stereo not drawn) [Compound 68, 5-(2,3-Difluoro-phenyl)-4-2-(3,4-dihydro-1H-isoquinolin-2-yl)-2-oxo-ethylimino-1-(3-imidazol-1-yl-propyl)-imidazolidin-2-one] | 4
O=C1N/C(=N/Cc2cccnc2)C(c2cc(F)cc(F)c2)N1c1ccc2[nH]cnc2c1 (stereo not drawn) [Compound 227, 1-(1H-Benzoimidazol-5-yl)-5-(3,5-difluoro-phenyl)-4-pyridin-3-ylmethylimino-imidazolidin-2-one] | 1.3
O=C1N/C(=N/CCc2ccccn2)C(c2c[nH]c3cc(F)ccc23)N1c1ccc2[nH]cnc2c1 (stereo not drawn) [Compound 345, 1-(1H-Benzoimidazol-5-yl)-5-(6-fluoro-1H-indol-3-yl)-4-2-pyridin-2-yl-ethylimino-imidazolidin-2-one] | 4
S=C1N/C(=N/Cn2nnc3ccccc32)C(c2ccc3c(c2)OCO3)N1c1ccc2[nH]cnc2c1 (stereo not drawn) [Compound 176, 5-Benzo1,3dioxol-5-yl-1-(1H-benzoimidazol-5-yl)-4-benzotriazol-1-ylmethylimino-imidazolidine-2-thione] | 1.3
O=C1N/C(=N\C2CCCCC2)C(c2cc(Br)cs2)N1c1ccc2[nH]cnc2c1 (stereo not drawn) [Compound 184] | 1.3
S=C1N/C(=N/CCCc2ccccc2)C(c2cc3ccccc3s2)N1c1ccc2[nH]cnc2c1 (stereo not drawn) [Compound 258, 5-Benzobthiophen-2-yl-1-(1H-benzoimidazol-5-yl)-4-3-phenyl-propylimino-imidazolidine-2-thione] | 3.1
O=C(C/N=C1/NC(=O)N(CCCn2ccnc2)C1c1cccc(F)c1)N1CCc2ccccc2C1 (stereo not drawn) [Compound 77, 4-2-(3,4-Dihydro-1H-isoquinolin-2-yl)-2-oxo-ethylimino-5-(3-fluoro-phenyl)-1-(3-imidazol-1-yl-propyl)-imidazolidin-2-one] | 4
CC(CC1/C(=N/C2CCCCCC2)NC(=O)N1c1ccc2nc[nH]c2c1)CC(C)(C)C (stereo not drawn) [Compound 130, 1-(3H-Benzoimidazol-5-yl)-4-cycloheptylimino-5-(2,4,4-trimethyl-pentyl)-imidazolidin-2-one] | 7.6
C/N=C1/NC(=O)N(c2ccc3[nH]cnc3c2)C1c1ccc(Cl)c(F)c1 (stereo not drawn) [Compound 339, 1-(1H-Benzoimidazol-5-yl)-5-(4-chloro-3-fluoro-phenyl)-4-methylimino-imidazolidin-2-one] | 0.4
CN(C)c1ccc(C2/C(=N\Cc3cccnc3)NC(=O)N2c2ccc3[nH]cnc3c2)cc1 (stereo not drawn) [Compound 180, 1-(1H-Benzoimidazol-5-yl)-5-(4-dimethylamino-phenyl)-4-pyridin-3-ylmethylimino-imidazolidin-2-one] | 0.4
